Reference: PMC12345172, “Uptake of fucosylated type I human milk oligosaccharide blocks by Bifidobacterium longum subsp. infantis” (mBio, 2025)
Read-outs that look alike come from different tables or passages of the source.

Assays:
Blon_0883 (BiGFL-BP) [1] = biological target: T1, Blon_0883 (BiGFL-BP) (Bifidobacterium longum, UniProt A0AAX1LHV4); assay: biochemical; set-up: SPR (Biacore T100), immobilized Blon_0883 on CM5 chip, 25 °C, pH 6.5; kinetic and steady-state fits; conditions: SPR kinetic global fit; for kon: read-out: kon (×10^6 M^-1s^-1)
T1 construct: gene msmE_4; mature peptide, amino acids 24-460, signal peptide removed; N-terminal TEV-cleavable His tag cut; E. coli BL21(DE3)
T1 sequence (A0AAX1LHV4 24-445): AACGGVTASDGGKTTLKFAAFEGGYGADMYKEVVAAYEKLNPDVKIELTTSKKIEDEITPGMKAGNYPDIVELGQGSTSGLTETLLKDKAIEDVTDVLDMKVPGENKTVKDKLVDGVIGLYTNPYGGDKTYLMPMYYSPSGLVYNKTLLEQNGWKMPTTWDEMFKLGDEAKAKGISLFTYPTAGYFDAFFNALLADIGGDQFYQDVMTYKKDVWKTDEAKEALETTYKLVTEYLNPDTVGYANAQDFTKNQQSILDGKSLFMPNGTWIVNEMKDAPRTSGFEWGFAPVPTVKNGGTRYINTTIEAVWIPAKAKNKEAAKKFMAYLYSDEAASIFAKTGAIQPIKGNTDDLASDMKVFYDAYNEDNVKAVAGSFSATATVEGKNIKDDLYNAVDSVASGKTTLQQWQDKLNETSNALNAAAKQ
Method: (§1) Affinity of Blon_0883 to oligosaccharides was also determined using a Biacore T100 (GE Healthcare). The protein was diluted into 10 mM sodium acetate (pH 4.2) to 2.0 µM and immobilized on a CM5 sensor chip using random amine coupling kit (GE Healthcare) to a density of 3,077 response units (RU) and the sensograms were recorded at 25°C in the same buffer used for the ITC (including 150 mM NaCl and 0.005% P20 surfactant) and analyzed as described ([24]). Experiments were performed in independent duplicates in the range 3.42–2,500 nM for LNB, GNB, Lewis A triose and Blood group H antigen triose. Binding was also tested using 0.1 µM–100 mM Lac, Gal, 3FL, 3SL, DFL LNT, and di-N-acetyl-lactosamine. The mature peptide of Blon_0883 was produced and purified to electrophoretic homogeneity. The binding affinity and thermodynamics of the transport protein were analyzed using isothermal titration calorimetry (ITC) and surface plasmon resonance (SPR) (Fig. 1; Fig. S1; Table S1). Among the tested ligands, the highest affinities were measured toward LNB and GNB. The binding of both ligands was driven by favorable enthalpy, similar to other saccharide-specific SBP ([21]) (Table 1). The Lewis a (Le^a) and blood group H type 1 antigen (H1) trisaccharides were both bound with about four-fold lower affinity than the preferred LNB ligand. […] Panels A through D depict representative binding isotherms based on technical triplicates. The circles are blank and reference-corrected binding levels, and the solid lines are the fits of a one binding site model to the steady state data. Panels E and F depict the blank and reference-corrected sensograms in gray, and the green lines are the global fits of a kinetic one site binding model to the binding sensograms.

Blon_0883 (BiGFL-BP) [2] = biological target: T1, Blon_0883 (BiGFL-BP); assay: isothermal titration calorimetry; assay type: binding; conditions: 25 °C, pH 6.5, 10 mM sodium phosphate; one-site model; free protein in solution
From the text: isothermal titration calorimetry on Blon_0883 (BiGFL-BP)

Blon_0883 (BiGFL-BP) [3] = biological target: T1, Blon_0883 (BiGFL-BP); set-up: SPR (Biacore T100), immobilized Blon_0883 on CM5 chip, 25 °C, pH 6.5; kinetic and steady-state fits; conditions: binder
Method: as §1

Blon_0883 (BiGFL-BP) [4] = biological target: T1, Blon_0883 (BiGFL-BP); assay: surface plasmon resonance, steady state; assay type: binding; conditions: 25 °C, pH 6.5, 10 mM sodium phosphate, 150 mM NaCl, 0.005% P20; protein amine-coupled to CM5 chip
From the text: surface plasmon resonance, steady state on Blon_0883 (BiGFL-BP)

[5] = SPR kinetic global fit, read-out: Kd Kinetics

Row | koff (Blon_0883 (BiGFL-BP) [1]) | kon (Blon_0883 (BiGFL-BP) [1]) | Kd (Blon_0883 (BiGFL-BP) [2]) | Kd (Blon_0883 (BiGFL-BP) [3]; [5]) | Kd (Blon_0883 (BiGFL-BP) [3]; SPR steady-state fit) | Kd (Blon_0883 (BiGFL-BP) [4]) | Compound
1 | 0.04 ± 0.003 s⁻¹ | 850000 ± 4000 M⁻¹ s⁻¹ | 169 nM | 42 nM | 62 ± 4 nM | – | CC(=O)N[C@H]1C(O)O[C@H](CO)[C@H](O)[C@@H]1O[C@@H]1O[C@H](CO)[C@H](O)[C@H](O)[C@H]1O (stereo partly drawn) [GNB, Galβ1,3GalNAc]
2 | 0.17 ± 0.002 s⁻¹ | 4.8e+06 ± 60000 M⁻¹ s⁻¹ | – | 37 nM | – | 158 ± 9 nM | CC(=O)N[C@H]1C(O)O[C@H](CO)[C@@H](O)[C@@H]1O[C@@H]1O[C@H](CO)[C@H](O)[C@H](O)[C@H]1O[C@@H]1O[C@@H](C)[C@@H](O)[C@@H](O)[C@@H]1O (stereo partly drawn) [H1]
3 | 0.14 ± 0.0005 s⁻¹ | 3e+06 ± 10000 M⁻¹ s⁻¹ | – | 49 nM | – | 146 ± 12 nM | CC(=O)N[C@H]1C(O)O[C@H](CO)[C@@H](O[C@@H]2O[C@@H](C)[C@@H](O)[C@@H](O)[C@@H]2O)[C@@H]1O[C@@H]1O[C@H](CO)[C@H](O)[C@H](O)[C@H]1O (stereo partly drawn) [Le^a]
4 | 0.16 ± 0.003 s⁻¹ | 1.46e+07 ± 30000 M⁻¹ s⁻¹ | 68.5 nM | 11 nM | 32.5 ± 3.2 nM | – | CC(=O)N[C@H]1C(O)O[C@H](CO)[C@@H](O)[C@@H]1O[C@@H]1O[C@H](CO)[C@H](O)[C@H](O)[C@H]1O (stereo partly drawn) [LNB, Galβ1,3GlcNAc]
